In experiment [1] the test system is E. coli DH10B pBC SK(+) empty. Briefly: MIC susceptibility testing, empty vector control. To be noted: Escherichia coli.
Experiment [2] addresses T1, purified PenA1 β-lactamase (Burkholderia multivorans, UniProt A0A0H3KN52).
T1 sequence (A0A0H3KN52 28-302): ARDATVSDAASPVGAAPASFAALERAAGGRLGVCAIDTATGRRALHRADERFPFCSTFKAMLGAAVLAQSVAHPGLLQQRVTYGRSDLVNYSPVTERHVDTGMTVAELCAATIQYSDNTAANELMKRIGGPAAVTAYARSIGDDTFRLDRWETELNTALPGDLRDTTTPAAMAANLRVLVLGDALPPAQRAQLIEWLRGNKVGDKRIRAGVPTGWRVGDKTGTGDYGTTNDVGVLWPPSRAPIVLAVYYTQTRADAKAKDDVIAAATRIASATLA
Nature of the experiment: Acylation rate k2/K. It counts as biochemical. To be noted: acylation rate (kinact/KI or k2/K), nitrocefin 100 μM reporter.

The target in experiment [3] is T1, purified PenA1 β-lactamase. Nature of the experiment: Steady-state inhibition kinetics, Ki-app, purified enzyme. To be noted: read-out: Km nitrocefin, used for correction of Ki-app. It counts as biochemical.

Converted amounts (≈) assume the structure as drawn.

On to `CCN1CCN(C(=O)N[C@@H](C(=O)N[C@@H]2C(=O)N3[C@@H]2SC(C)(C)[C@@H]3C(=O)O)c2ccccc2)C(=O)C1=O` [Piperacillin], for which 2 µg/mL (≈ 3.86 µM) was the least that counted as inhibitory in experiment [1] (MIC).

With `O=C(O)[C@H]1/C(=C/CO)O[C@@H]2CC(=O)N21` [clavulanic acid], the k2/K in experiment [2] was in the range of 340 to 2e+06 M⁻¹ s⁻¹. `Cn1cc[n+](C[C@@]2(C)[C@H](C(=O)[O-])N3C(=O)C[C@H]3S2(=O)=O)n1` [enmetazobactam]: in experiment [2], the k2/K was 6.3 ± 2.0 × 10^5 M^−1 s^−1. For `O=C(Cc1cccs1)N[C@@H]1C(=O)N2C(C(=O)O)=C(/C=C/c3ccc([N+](=O)[O-])cc3[N+](=O)[O-])CS[C@H]12` [nitrocefin], the Km in experiment [3] worked out at 147 µM.

Usually MIC stands for the lowest concentration that inhibits growth of the organism. Low readings indicate a more susceptible organism, high ones a less susceptible organism. The Km is the substrate concentration at which the rate is half of its maximum.

The record behind these values is PMC8324038 (ACS infectious diseases, 2021).
